Patent US10526580B2, “Differentiated cell population of endothelial cells derived from human pluripotent stem cells, composition, system, kit and uses thereof” (BIOCANT-ASSOCIAÇÃO DE TRANSFERÊNCIA DE TECNOLOGIA, priority 2012, dated 2020)
Where a name gives a salt, the structure may show the parent alone.

What was measured:
[1] = tested on: hESC-derived ECs versus HUAECs; assay: High-throughput screening of LOPAC library, PrestoBlue cell viability, hESC-derived ECs versus HUAECs; assay type: cell-based, human; details: LOPAC screen, 4.5 μM, 4 days, PrestoBlue assay
Experimental: (§1) High-throughput screening (HTS). HUAECS (Lonza) and hESC-derived ECs were cultured in EGM-2 medium while human anterior cruciate ligament cells (ACL cells) were cultured in Dulbecco's modified Eagle's medium (DMEM; PAA) supplemented with 10% FBS, 0.2 mM ascorbic acid 2-phosphate magnesium salt (Sigma Aldrich), […] streptomycin and 100 U/mL penicillin (Life Technologies). ACL cells were isolated from patients that have signed an informed consent form, in compliance with the Dutch legislation. The ethical committee of Medisch Spectrum Twente Hospital approved the collection.
(§2) The LOPAC library (Sigma-Aldrich) was used to screen embryonic endothelial-specific cytotoxic compounds. The compounds were solubilized in DMSO. The final compound concentration used in the screen was 4.5 μM in a final volume of 200 μL per well (96-well plate). HUAECs, hESC-derived EC and ACL cells were seeded at 16,000 cells/well (HUAECs and hESC-derived ECs) and 5,000 cells/well (ACL cells) and allowed to reach near confluence (approximately two days). After two days, medium was exchanged and test compounds and controls were added to the 96-well plates (all wells contained 0.25% (v/v) DMSO). After 4 days of incubation, cell viability was assessed using a PrestoBlue (Invitrogen) assay. This assay is based on a resazurin-based solution that indicates the reducing power of living cells and therefore measures indirectly their number. For each measurement, cell medium was removed and the PrestoBlue solution (10%) was added for 3 h at 37° C. upon which the absorbance was measured at 560-590 nm.
(§3) Disruption of vascular development has been directly correlated with prenatal loss, malformations and neurodevelopmental problems^41-44. […] The library was screened at a single dosage of 4.5 μM in a volume of 200 μL per well of EGM-2 medium, containing 0.25% DMSO (v/v). […] Six compounds (danazol, chlorpromazine hydrochloride, ellipticine, 3′,4′-dichlorobenzamil, fluphenazine dihydrochloride and 7-cyclopentyl-5-(4-phenoxy)phenyl-7H-pyrrolo[2,3-d]pyrimidin-4-ylamine) affected cell viability in both cells by a difference of 20% (FIG. 4B). The six compounds belong to different classes: cell cycle, ion pumps, dopamine pathway, phosphorylation and hormone signaling. The compounds selected from the primary screen were then tested against hESC-derived ECs and HUAECs at eight different concentrations to obtain a dose-response curve (FIG. 4C and FIG. 14).

[2] = tested on: hESC-derived ECs versus ACL cells; assay: High-throughput screening of LOPAC library, PrestoBlue cell viability, hESC-derived ECs versus ACL cells; assay type: cell-based, human; details: LOPAC screen, 4.5 μM, 4 days of incubation, PrestoBlue assay
Experimental: as §1, §2, §3

| Compound | difference in cell viability between hESC-derived ECs and HUAECs [1] | Differences (%) in cell viability (hESC-Derived ECs versus ACL cells) [2] |
| --- | --- | --- |
| CN(C)CCCN1c2ccccc2Sc2ccc(Cl)cc21 [Chlorpromazine hydrochloride] | 20% | 57.2% |
| N/C(=N\C(=O)c1nc(Cl)c(N)nc1N)NCc1ccc(Cl)c(Cl)c1 [3′,4′-Dichlorobenzamil] | 20% | 54.2% |
| Cc1c2ccncc2c(C)c2c1[nH]c1ccccc12 [Ellipticine] | 20% | 58.5% |
| OCCN1CCN(CCCN2c3ccccc3Sc3ccc(C(F)(F)F)cc32)CC1 [Fluphenazine dihydrochloride] | 20% | 51.4% |
| O=C1c2c(O)ccc(O)c2C(=O)c2c(NCCNCCO)ccc(NCCNCCO)c21 [Mitoxantrone] | – | 94.4% |
| COc1cccc2c1[C@@H]1CN(CCCCn3c(=O)[nH]c4c(sc5ncc(-c6ccccc6)nc54)c3=O)C[C@@H]1CO2 [Fiduxosin hydrochloride] | – | 58.2% |
| CC(C)(C)c1cc(/C=C(\C#N)C(N)=S)cc(C(C)(C)C)c1O [Tyrphostin AG 879] | – | 54.4% |
| CN(C)CC/C=C1/c2ccccc2Sc2ccc(Cl)cc21 [Chlorprothixene hydrochloride] | – | 58.1% |
| COc1ccc(CCCOC(Cn2ccnc2)c2ccc(OC)cc2)cc1 (stereo not shown) [SKF 96365] | – | 69.8% |
| R-(−)-Fluoxetine hydrochloride | – | 54.5% |
| O=C(O)c1ccccc1Nc1cccc(OCc2ccc3ccccc3n2)c1 [SR 2640] | – | 53.0% |
| CC(C)(C)c1ccc(C(O)CCCN2CCC(C(O)(c3ccccc3)c3ccccc3)CC2)cc1 (stereo not shown) [Terfenadine] | – | 98.3% |
| Cc1scc2c1N(C(=O)CN1CCN(C)CC1)c1ccccc1NC2=O [Telenzepine dihydrochloride] | – | 68.9% |
| Nc1ncn([C@@H]2O[C@H](CO)[C@@H](O)[C@H]2O)c(=O)n1 [5-azacytidine] | – | 56.1% |
| CC1(C(=O)O)C2CCC(O2)C1(C)C(=O)O (stereo not shown) [Cantharidic Acid] | – | 93.8% |
| CC(=O)[C@]1(O)Cc2c(O)c3c(c(O)c2[C@@H](O[C@H]2C[C@H](N)[C@H](O)[C@H](C)O2)C1)C(=O)c1ccccc1C3=O [Idarubicin] | – | 94.0% |
| C/C=C(/C)C(=O)O[C@H]1C(C)=C2[C@H]([C@@H]1OC(=O)CCCCCCC)[C@@](C)(OC(C)=O)C[C@H](OC(=O)CCC)[C@@]1(O)[C@H]2OC(=O)[C@@]1(C)O [Thapsigargin] | – | 94.8% |
| CN(C)CCCN1c2ccccc2Sc2ccc(C(F)(F)F)cc21 [Triflupromazine hydrochloride] | – | 53.0% |
| CCCCCCCCCCCCCCCCCC(=O)NCC(COP(=O)([O-])OCC[N+](C)(C)C)OCC (racemic) [rac-2-Ethoxy-3-octadecanamido-1-propylphosphocholine] | – | 56.2% |
| CN(C)S(=O)(=O)c1ccc2c(c1)/C(=C/c1cc3c([nH]1)CCCC3)C(=O)N2 [SU 6656] | – | 61.5% |
| COc1cc(OC)c(C=C2C(O)=Nc3ccccc32)c(OC)c1 [IC 261] | – | 73.0% |
| CC(=O)c1c(O)c(C)c(O)c(Cc2c(O)c3c(c(C(=O)/C=C/c4ccccc4)c2O)OC(C)(C)C=C3)c1O [Rottlerin] | – | 61.6% |
| CNCC[C@@H](Oc1ccccc1C)c1ccccc1 [Tomoxetine] | – | 68.7% |
| CSc1ccc2c(c1)C(N1CCN(C)CC1)Cc1ccccc1S2 (stereo not shown) [Methiothepin mesylate] | – | 52.4% |

| Compound | difference in cell viability between hESC-derived ECs and HUAECs [1] | Differences (%) in cell viability (hESC-Derived ECs versus ACL cells) [2] |
| --- | --- | --- |
| CCCN1CCC[C@@H](c2cccc(O)c2)C1.Cl [S(−)-3PPP hydrochloride] | – | 51.8% |
| Cc1cc(N)c2ccccc2[n+]1CCCCCCCCCC[n+]1c(C)cc(N)c2ccccc21 [Dequalinium dichloride] | – | 60.6% |
| CC(/C=C/c1cccc(Oc2ccc(F)cc2)c1)N(O)C(N)=O (stereo not shown) [BWB70C] | – | 55.3% |
| CNc1ccc2oc(C[C@H]3O[C@@]4(CC[C@H]3C)O[C@H]([C@H](C)C(=O)c3ccc[nH]3)[C@H](C)C[C@H]4C)nc2c1C(=O)O [Calcimycin] | – | 96.2% |
| COc1cc([C@@H]2c3cc4c(cc3[C@@H](O[C@@H]3O[C@@H]5CO[C@@H](C)O[C@H]5[C@H](O)[C@H]3O)[C@H]3COC(=O)[C@H]23)OCO4)cc(OC)c1O [Etoposide] | – | 59.6% |
| N#C/C(=C\c1ccc(O)c(O)c1)C(=O)NCCCNC(=O)/C(C#N)=C/c1ccc(O)c(O)c1 [Tyrphostin AG 537] | – | 52.3% |
| COc1cc2c(c(OC)c1OC)-c1ccc(OC)c(=O)cc1[C@@H](NC(C)=O)CC2 [Colchicine] | – | 67.4% |
| C=CCc1ccccc1OCC(O)CNC1(C)CCC(C(C)(C)NC(=O)CBr)CC1 (stereo not shown) [Bromoacetyl alprenolol menthane] | – | 93.4% |
| C#C[C@]1(O)CC[C@H]2[C@@H]3CCC4=Cc5oncc5C[C@]4(C)[C@H]3CC[C@@]21C [Danazol] | 20% | 52.7% |
| CC(C)(C)c1cc(C=C(C#N)C#N)cc(C(C)(C)C)c1O [Tyrphostin A9] | – | 69.5% |
| COc1ccc(CCN(C)CCCC(C#N)(c2ccc(OC)c(OC)c2)C(C)C)cc1OC.Cl (racemic) [(±)-Verapamil hydrochloride] | – | 85.1% |
| C[n+]1cc2c3c(ccc2c2ccc4cc5c(cc4c21)OCO5)OCO3 [Sanguinarine chloride] | – | 96.4% |
| CC(C)[C@@]1(NC(=O)[C@@H]2C=C3c4cccc5[nH]cc(c45)C[C@H]3N(C)C2)O[C@@]2(O)[C@@H]3CCCN3C(=O)[C@H](Cc3ccccc3)N2C1=O [Ergocristine] | – | 52.5% |
| CN1C[C@H](CNC(=O)OCc2ccccc2)C[C@@H]2c3cccc4c3c(cn4C)C[C@H]21 [Metergoline] | – | 56.5% |
| N#C/C(=C\c1ccc(O)c(O)c1)C(=O)NCc1ccccc1 [Tyrphostin AG 490] | – | 56.3% |
| C[C@@H](NC(=O)/C(C#N)=C/c1ccc(O)c(O)c1)c1ccccc1 [Tyrphostin AG 527] | – | 53.4% |
| CC(=O)O[C@H]1C(=O)[C@@]2(C)[C@H]([C@H](OC(=O)c3ccccc3)[C@]3(O)C[C@H](OC(=O)[C@H](O)[C@@H](NC(=O)c4ccccc4)c4ccccc4)C(C)=C1C3(C)C)[C@]1(OC(C)=O)CO[C@@H]1C[C@@H]2O [Taxol] | – | 78.1% |
| COc1cc2c(cc1OC)-c1c/c(=N\c3c(C)cc(C)cc3C)n(C)c(=O)n1CC2 [Trequinsin hydrochloride] | – | 50.7% |
| O=c1[nH]c(=O)n([C@H]2C[C@H](O)[C@@H](CO)O2)cc1Br [5-Bromo-2′-deoxyuridine] | – | 53.9% |
| CCn1c(=O)[nH]c2cc(Cl)c(Cl)cc21 [DCEBIO] | – | 73.2% |
| CSc1ccc2c(c1)N(CCC1CCCCN1C)c1ccccc1S2 (stereo not shown) [Thioridazine hydrochloride] | – | 51.6% |
| CS(=O)(=O)O.Cc1c(C(=O)c2cccc3ccccc23)c2cccc3c2n1[C@H](CN1CCOCC1)CO3 [(R)-(+)-WIN 55,212-2 mesylate] | – | 97.7% |
| Br.CN=c1nc(-c2ccccc2)n(-c2ccccc2)s1 [SCH-202676 hydrobromide] | – | 53.2% |
